Common to all, as to assay: Kinase selectivity, DiscoverX scanMAX Kinase assay panel (% control)
What all share (type): binding

The target in experiment [1] is T1, kinases of the scanMAX Kinase assay panel (Homo sapiens, UniProt Q6XUX3).
T1 construct: purchased DiscoverX Co. (contract measurement) scanMAX Kinase assay panel
T1 sequence (Q6XUX3 1-929): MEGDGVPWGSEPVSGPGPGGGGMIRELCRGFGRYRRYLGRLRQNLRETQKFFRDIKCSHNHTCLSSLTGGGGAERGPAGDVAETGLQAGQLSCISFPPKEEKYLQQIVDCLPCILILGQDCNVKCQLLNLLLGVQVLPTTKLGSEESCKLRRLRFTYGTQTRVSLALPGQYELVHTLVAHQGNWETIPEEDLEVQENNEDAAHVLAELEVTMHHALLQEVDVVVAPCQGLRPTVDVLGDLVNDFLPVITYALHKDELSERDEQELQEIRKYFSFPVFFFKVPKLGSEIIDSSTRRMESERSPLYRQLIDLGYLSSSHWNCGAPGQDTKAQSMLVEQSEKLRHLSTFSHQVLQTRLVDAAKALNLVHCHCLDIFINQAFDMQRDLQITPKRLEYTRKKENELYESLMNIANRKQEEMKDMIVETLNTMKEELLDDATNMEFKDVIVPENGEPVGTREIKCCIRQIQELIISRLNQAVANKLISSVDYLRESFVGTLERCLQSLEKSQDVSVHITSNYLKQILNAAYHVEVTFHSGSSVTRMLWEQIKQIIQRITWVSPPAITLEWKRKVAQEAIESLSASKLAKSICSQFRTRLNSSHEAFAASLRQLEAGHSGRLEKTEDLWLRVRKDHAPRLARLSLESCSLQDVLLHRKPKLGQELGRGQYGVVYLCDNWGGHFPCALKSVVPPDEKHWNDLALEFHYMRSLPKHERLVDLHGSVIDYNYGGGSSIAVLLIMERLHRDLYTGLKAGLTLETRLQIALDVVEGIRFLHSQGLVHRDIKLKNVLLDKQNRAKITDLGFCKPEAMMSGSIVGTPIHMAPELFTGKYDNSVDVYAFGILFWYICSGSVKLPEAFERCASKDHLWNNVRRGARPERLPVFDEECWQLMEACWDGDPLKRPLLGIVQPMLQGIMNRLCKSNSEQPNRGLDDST
As to conditions: kinase RIPK5; 1 uM in DMSO. Put shortly:
(§1)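 Each enzyme is treated with drug at 1 uM in DMSO, then signal is scaled between a positive control (0%) and DMSO (100%) to give % control. Kinases with % control under 35% are scored as inhibited.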

Experiment [2] deals with T2, kinases of the scanMAX Kinase assay panel (Homo sapiens, UniProt Q86V86).
T2 construct: purchased DiscoverX Co. (contract measurement) scanMAX Kinase assay panel
The conditions noted are these: PIM3; 1 uM. Put shortly:
as §1

The target of experiment [3] is T3, kinases of the scanMAX Kinase assay panel (Homo sapiens, UniProt Q8IVH8).
T3 construct: purchased DiscoverX Co. (contract measurement) scanMAX Kinase assay panel
T3 sequence (Q8IVH8 1-894): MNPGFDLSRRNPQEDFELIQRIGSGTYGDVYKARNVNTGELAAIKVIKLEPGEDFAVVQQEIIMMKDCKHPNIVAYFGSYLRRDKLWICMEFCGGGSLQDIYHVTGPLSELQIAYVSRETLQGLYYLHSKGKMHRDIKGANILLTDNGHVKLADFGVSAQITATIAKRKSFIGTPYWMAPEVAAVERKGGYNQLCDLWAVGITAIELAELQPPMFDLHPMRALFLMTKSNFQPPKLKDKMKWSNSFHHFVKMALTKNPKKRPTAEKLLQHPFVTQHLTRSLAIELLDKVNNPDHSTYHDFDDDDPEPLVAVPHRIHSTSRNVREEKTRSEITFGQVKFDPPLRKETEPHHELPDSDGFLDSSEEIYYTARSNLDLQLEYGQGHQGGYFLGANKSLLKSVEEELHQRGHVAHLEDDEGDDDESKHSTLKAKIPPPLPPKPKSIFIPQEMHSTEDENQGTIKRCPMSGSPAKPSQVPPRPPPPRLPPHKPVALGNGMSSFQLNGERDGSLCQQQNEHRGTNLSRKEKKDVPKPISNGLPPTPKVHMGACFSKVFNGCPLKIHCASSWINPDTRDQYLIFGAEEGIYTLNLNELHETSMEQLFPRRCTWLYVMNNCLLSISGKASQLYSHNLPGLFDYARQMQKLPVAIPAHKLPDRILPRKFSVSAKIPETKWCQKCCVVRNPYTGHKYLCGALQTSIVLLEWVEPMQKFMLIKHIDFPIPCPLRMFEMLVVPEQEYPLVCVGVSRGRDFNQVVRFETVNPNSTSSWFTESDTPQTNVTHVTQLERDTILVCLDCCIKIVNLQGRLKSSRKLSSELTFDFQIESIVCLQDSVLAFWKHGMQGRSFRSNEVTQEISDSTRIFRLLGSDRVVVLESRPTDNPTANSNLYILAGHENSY
The conditions noted are these: MAP4K3; 1 uM. Put shortly:
as §1

Experiment [4] deals with T4, kinases of the scanMAX Kinase assay panel (Homo sapiens, UniProt Q13464).
T4 construct: purchased DiscoverX Co. (contract measurement) scanMAX Kinase assay panel
The conditions noted are these: kinase ROCK1; 1 uM in DMSO. Put shortly:
as §1

The target in experiment [5] is T5, kinases of the scanMAX Kinase assay panel (Homo sapiens, UniProt P51957).
T5 construct: purchased DiscoverX Co. (contract measurement) scanMAX Kinase assay panel
The conditions noted are these: NEK4; 1 uM. Put shortly:
as §1

Experiment [6] addresses T6, kinases of the scanMAX Kinase assay panel (Homo sapiens, UniProt O14578).
T6 construct: purchased DiscoverX Co. (contract measurement) scanMAX Kinase assay panel
As to conditions: CIT; 1 uM. Put shortly:
as §1

T6 sequence (O14578 whole entry): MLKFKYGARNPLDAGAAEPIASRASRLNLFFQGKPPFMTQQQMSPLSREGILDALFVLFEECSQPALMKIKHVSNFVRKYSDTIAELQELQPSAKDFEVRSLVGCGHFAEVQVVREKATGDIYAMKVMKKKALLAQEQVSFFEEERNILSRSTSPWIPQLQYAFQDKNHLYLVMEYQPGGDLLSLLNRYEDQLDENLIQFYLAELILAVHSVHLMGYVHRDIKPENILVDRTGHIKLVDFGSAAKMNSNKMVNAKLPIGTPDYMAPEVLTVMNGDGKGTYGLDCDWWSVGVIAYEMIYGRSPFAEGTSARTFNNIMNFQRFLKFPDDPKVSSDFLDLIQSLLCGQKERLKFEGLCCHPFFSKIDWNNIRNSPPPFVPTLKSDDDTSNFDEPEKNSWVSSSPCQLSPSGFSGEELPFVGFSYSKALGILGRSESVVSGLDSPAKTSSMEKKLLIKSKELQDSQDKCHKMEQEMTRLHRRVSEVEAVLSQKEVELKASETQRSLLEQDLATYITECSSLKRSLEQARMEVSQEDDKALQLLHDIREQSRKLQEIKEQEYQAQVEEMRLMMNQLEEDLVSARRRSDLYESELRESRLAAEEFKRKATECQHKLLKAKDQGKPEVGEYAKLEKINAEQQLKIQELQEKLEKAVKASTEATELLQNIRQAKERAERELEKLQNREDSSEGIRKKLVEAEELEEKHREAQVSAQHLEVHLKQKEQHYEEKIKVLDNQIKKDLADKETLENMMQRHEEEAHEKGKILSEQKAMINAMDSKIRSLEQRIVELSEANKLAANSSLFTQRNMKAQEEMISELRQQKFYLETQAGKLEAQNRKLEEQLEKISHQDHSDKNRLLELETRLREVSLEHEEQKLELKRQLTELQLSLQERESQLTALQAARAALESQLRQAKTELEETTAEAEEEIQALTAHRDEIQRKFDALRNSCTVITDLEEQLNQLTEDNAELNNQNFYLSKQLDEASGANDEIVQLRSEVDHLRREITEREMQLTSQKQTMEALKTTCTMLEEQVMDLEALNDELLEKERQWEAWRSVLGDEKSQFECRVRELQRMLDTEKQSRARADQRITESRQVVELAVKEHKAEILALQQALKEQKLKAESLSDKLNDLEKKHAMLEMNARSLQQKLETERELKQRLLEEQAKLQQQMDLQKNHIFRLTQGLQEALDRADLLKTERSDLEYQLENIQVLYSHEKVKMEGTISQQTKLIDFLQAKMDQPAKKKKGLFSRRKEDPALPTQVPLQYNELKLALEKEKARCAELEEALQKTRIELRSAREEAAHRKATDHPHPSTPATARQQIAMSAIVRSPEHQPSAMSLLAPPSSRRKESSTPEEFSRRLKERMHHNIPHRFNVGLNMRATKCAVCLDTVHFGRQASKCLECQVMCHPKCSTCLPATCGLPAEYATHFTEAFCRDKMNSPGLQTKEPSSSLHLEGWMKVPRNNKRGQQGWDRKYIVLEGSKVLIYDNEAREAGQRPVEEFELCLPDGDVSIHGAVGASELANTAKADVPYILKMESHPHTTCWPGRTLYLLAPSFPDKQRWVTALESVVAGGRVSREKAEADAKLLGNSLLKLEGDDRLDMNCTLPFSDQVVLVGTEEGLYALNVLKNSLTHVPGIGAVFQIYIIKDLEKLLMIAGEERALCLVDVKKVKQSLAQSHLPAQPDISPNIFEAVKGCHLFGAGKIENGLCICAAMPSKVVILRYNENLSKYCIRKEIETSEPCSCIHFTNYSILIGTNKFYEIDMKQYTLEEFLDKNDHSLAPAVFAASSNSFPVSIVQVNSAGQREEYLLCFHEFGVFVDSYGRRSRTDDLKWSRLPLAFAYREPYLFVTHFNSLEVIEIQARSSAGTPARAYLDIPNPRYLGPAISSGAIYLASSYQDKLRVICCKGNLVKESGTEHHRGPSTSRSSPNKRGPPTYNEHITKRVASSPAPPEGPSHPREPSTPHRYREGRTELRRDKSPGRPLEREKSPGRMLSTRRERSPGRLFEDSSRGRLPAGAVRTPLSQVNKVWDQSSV
T4 sequence (Q13464 whole entry): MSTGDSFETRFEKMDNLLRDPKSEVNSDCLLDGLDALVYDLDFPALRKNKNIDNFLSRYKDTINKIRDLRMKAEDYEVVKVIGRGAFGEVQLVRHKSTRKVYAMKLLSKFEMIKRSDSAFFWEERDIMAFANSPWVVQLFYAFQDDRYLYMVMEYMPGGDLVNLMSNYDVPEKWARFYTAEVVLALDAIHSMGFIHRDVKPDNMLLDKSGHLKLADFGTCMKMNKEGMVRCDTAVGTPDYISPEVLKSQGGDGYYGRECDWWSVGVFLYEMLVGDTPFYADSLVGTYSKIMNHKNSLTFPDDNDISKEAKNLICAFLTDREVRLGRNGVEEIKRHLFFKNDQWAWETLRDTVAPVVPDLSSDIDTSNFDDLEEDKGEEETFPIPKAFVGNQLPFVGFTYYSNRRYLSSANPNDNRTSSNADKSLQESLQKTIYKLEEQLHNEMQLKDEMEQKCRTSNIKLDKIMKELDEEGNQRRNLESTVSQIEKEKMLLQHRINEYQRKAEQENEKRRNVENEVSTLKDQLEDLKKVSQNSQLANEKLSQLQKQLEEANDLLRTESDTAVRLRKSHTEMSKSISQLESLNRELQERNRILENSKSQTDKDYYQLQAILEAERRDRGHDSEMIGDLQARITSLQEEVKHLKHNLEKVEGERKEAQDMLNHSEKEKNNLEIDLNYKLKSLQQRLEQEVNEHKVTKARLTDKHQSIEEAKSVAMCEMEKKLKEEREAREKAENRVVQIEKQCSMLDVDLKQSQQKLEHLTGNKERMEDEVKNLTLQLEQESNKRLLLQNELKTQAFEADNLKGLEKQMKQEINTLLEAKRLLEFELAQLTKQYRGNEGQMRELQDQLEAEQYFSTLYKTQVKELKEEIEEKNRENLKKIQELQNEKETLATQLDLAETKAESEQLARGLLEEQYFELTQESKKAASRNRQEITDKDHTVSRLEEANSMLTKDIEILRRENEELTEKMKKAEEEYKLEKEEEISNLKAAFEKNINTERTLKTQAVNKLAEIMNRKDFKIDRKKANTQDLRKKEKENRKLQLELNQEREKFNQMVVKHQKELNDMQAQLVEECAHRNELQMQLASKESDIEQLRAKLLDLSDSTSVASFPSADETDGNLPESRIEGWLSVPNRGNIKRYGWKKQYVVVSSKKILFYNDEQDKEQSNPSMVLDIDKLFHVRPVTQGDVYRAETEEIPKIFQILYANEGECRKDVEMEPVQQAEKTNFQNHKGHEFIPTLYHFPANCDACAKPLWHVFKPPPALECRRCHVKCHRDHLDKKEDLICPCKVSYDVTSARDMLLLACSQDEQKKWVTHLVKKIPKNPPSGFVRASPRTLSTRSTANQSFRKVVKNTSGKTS
T5 sequence (P51957 whole entry): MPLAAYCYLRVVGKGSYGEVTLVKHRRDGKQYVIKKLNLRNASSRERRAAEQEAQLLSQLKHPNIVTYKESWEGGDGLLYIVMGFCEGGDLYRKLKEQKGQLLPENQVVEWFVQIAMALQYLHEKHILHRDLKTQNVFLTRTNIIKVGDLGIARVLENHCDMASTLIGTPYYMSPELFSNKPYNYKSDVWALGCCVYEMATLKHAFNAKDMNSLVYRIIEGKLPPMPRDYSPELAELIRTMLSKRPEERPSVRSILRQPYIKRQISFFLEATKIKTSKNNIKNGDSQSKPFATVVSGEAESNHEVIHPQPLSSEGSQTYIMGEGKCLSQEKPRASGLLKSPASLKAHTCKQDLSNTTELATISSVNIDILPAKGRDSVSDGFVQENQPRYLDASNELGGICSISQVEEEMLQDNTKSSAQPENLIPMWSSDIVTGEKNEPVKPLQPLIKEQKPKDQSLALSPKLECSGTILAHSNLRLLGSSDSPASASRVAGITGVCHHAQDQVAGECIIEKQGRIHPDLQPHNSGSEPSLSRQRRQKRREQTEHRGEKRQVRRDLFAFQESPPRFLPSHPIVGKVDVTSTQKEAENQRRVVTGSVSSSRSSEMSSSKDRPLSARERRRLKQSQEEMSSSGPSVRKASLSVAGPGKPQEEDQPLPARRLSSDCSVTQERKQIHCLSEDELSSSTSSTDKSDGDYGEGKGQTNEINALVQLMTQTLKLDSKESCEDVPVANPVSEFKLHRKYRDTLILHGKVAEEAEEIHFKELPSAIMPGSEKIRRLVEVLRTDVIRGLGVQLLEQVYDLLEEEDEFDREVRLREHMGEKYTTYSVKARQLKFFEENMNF

Regarding `CNc1nc(Nc2ccc(C(=O)N3CCOCC3)cc2OC)nc2[nH]cc(C#N)c12` [Example 1, 2-((2-methoxy-4-(morpholine-4-carbonyl)phenyl)amino)-4-(methylamino)-7H-pyrrolo[2,3-d]pyrimidine-5-carbonitrile], the remaining binding at 1 µM is 10% in experiment [1]; 98% in experiment [2]; 97% in experiment [3]; 64% in experiment [4]; 75% in experiment [5]; 86% in experiment [6].
As to `CC1(Nc2nc(Nc3cnn([C@H]4CCN(C5COC5)C[C@@H]4F)c3Cl)nc3[nH]cc(C#N)c23)CC1` [Example 52, 2-((5-chloro-1-((3S,4S)-3-fluoro-1-(oxetane-3-yl)piperidine-4-yl)-1H-pyrazole-4-yl)amino)((1-methylcyclopropyl)amino)-7H-pyrrolo[2,3-d]pyrimidine-5-carbonitrile], the remaining binding at 1 µM came to 3.7% in experiment [1]; 49% in experiment [2]; 3.3% in experiment [3]; 28% in experiment [4]; 100% in experiment [5]; 76% in experiment [6].
`CCNc1nc(Nc2ccc(C(=O)N3CCC(N4CCOCC4)CC3)cc2OC)nc2[nH]cc(C(F)(F)F)c12` [Example 104, (4-((4-(ethylamino)-5-(trifluoromethyl)-7H-pyrrolo[2,3-d]pyrimidine-2-yl)amino)-3-methoxyphenyl)(4-morpholinopiperidine-1-yl)methanone]: the remaining binding at 1 µM in experiment [1] turned out to be 18%; in experiment [2], 73%; in experiment [3] it was 100%; in experiment [4], 100%; in experiment [5] it was 100%; in experiment [6], 100%.

Source of the values: US11208412B2 (DAEGU-GYEONGBUK MEDICAL INNOVATION FOUNDATION, priority 2017, dated 2021).
